Assay results: patent US20250263376A1, “(E)-N-CINNAMOYLAMINOALKANOLS WITH MELANOGENESIS INHIBITORY ACTIVITY” (Uniwersytet Jagiellonski, priority 2024, published 2025)

Legend:
[1] = tested on: human reconstructed epidermis model EpiDerm; assay: Extended skin irritation test in reconstructed human epidermis EpiDerm; format: cell-based; conditions: 1.0% in 50% PEG (10 μL)
Experimental: Extended Skin Irritation Tests on Reconstructed Human Epidermis-Exposure Time Extended to 7 Days.
In order to perform extended skin irritation (safety) tests on the reconstructed human epidermis, the exposure time to the tested compounds was extended to 2 and 7 days in the human reconstructed epidermis model EpiDerm™ from MatTek. The epidermis was cultured according to the manufacturer's recommendations, using appropriate multi-well plates and culture media. Solutions of the tested compounds were applied to the epidermis using a positive displacement pipette and distributed using a sterile glass bulb headed Pasteur pipette. […] The epidermis was cultured in an incubator ensuring appropriate humidity, temperature (37° C.) and CO2 concentration (5%). The medium was replaced daily. After an appropriate incubation time, i.e. 2 days or 7 days, the epidermis was rinsed with sterile DPBS and incubated with MTT (Thiazolyl Blue Tetrazolium bromide) solution at 37° C. for 3 hours. After this time, a purple color of formazan was observed, correlated with tissue viability. […] Moreover, in the medium collected after the first 24 hours of EpiDerm epidermis culture, the level of interleukin 1α (Il-1α), which is a mediator of inflammation, was determined. Its level correlates with the unfavorable (irritating) effect of the tested substances on the epidermis. The level of IL-1α was determined using the Cayman Elisa test.

keratinocytes (HaCaT) = assay: Safety, MTT test in keratinocytes; format: cell-based; conditions: 48 hours
Experimental: (§1) In order to test the safety of the compounds, both normal human cells were used: keratinocytes (HaCaT), fibroblasts (BJ), primary melanocytes that occur in the skin, as well as human cancer cells: the hepatocarcinoma line HepG2 and the neuroblastoma line SH-SY5Y, which are considered a model for the assessment of hepatocytotoxicity and neurocytotoxicity. The concentrations of the tested compounds in the range of […] were used in the studies. The cell lines used in the research were purchased from the American Type Culture Collection (ATCC) and were cultured in media recommended by the manufacturer with the addition of FBS and antibiotics in an incubator ensuring appropriate culture conditions, i.e. humidity, temperature and CO2 concentration. Cells were seeded into multiwell plates and incubated with the test compounds for 48 hours. After this time, MTT and LDH tests were performed to assess cell viability. The MTT test is based on the ability to transform the substrate: [3-(4,5-dimethyl-2-thiazolyl)-2,5-diphenyl-2H-tetrazolium bromide into a colored product only by living cells. The absorbance at 570 nm, which corresponds to the absorption maximum for the product, is directly proportional to cell viability. The LDH test is based on testing the activity of the enzyme lactate dehydrogenase in the culture medium, which is released from cells as a result of damage to the cell membrane, e.g. as a result of cell death. Triton X-100 was used as a positive control in the test. The determination is colorimetric, the substrate is transformed by the released enzyme into a colored product, an increase in absorbance indicates a larger amount of the released enzyme, and thus confirms greater damage to cell membranes. Tables 7 and 8 present the results obtained, which correspond to the viability of cells incubated with the compounds in relation to the viability of cells constituting a control sample, i.e. incubated with the solvent (DMSO) at the same concentration as in the case of the groups tested in the MTT test or in relation to the results obtained for the Triton X-100 positive control in the LDH test. They indicate that the compounds are safe at the concentrations tested.

fibroblasts (BJ) = assay: Safety, LDH test in fibroblasts; format: cell-based; conditions: 48 hours, vs Triton X-100
Experimental: as §1

primary melanocytes [2] = assay: Safety, MTT test in primary melanocytes; format: cell-based; conditions: 48 hours
Experimental: as §1

primary melanocytes [3] = assay: Safety, LDH test in primary melanocytes; format: cell-based; conditions: 48 hours, vs Triton X-100
Experimental: as §1

hepatocarcinoma HepG2 [4] = assay: Safety, MTT test in HepG2; format: cell-based; conditions: 48 hours
Experimental: as §1

hepatocarcinoma HepG2 [5] = assay: Safety, LDH test in HepG2; format: cell-based; conditions: 48 hours, vs Triton X-100
Experimental: as §1

neuroblastoma SH-SY5Y [6] = assay: Safety, MTT test in SH-SY5Y; format: cell-based; conditions: 48 hours
Experimental: as §1

neuroblastoma SH-SY5Y [7] = assay: Safety, LDH test in SH-SY5Y; format: cell-based; conditions: 48 hours, vs Triton X-100
Experimental: as §1

S. typhimurium TA98 = assay: Ames microplate test, TA98; format: cell-based, Salmonella typhimurium
Experimental: (§2) Bacteria were grown overnight in growth medium.

S. typhimurium TA100 = assay: Ames microplate test, TA100; format: cell-based, Salmonella typhimurium
S. typhimurium TA1537 = assay: Ames microplate test, TA1537; format: cell-based, Salmonella typhimurium
Experimental: as §2

S. typhimurium TA1535 = assay: Ames microplate test, TA1535;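 further: bacteria exposed 90 min at 37 °C in exposure medium, then 48 h in indicator medium in 384-well plates, yellow (revertant) wells counted per condition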
Experimental: The study used the Ames microplate test (Ames MPF™ Penta 2 by Xenometrix, Allschwil, Switzerland). Growth medium, exposure medium, indicator medium, positive controls, hepatic microsomal fraction, NADP, glucose-6-phosphate, Salmonella typhimurium and Escherichia coli strains were components of the purchased experimental kit. Bacteria were grown overnight in growth medium. They were then exposed to the test compound at the appropriate concentration in exposure medium without or with the rat microsomal fraction S9 in 24-well plates for 90 min at 37° C. with shaking. Then, indicator medium was added to the wells and pipetted into 384-well plates, which were incubated for 48 hours at 37° C. without shaking. Results were assessed by counting the wells in which the medium turned yellow for each experimental condition.

E. coli WP2 = assay: Ames microplate test, E. coli WP2;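 further: bacteria exposed to compound for 90 min at 37 °C in 24-well plates, then transferred with indicator medium to 384-well plates and incubated 48 h before yellow well counting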

O=C(/C=C/c1ccccc1)NCCCCCO [Compound A-133, (2E)-N-(5-hydroxypentyl)-3-phenylprop-2-enamide]
Viability [% of control, mean ± SD] 2 days [1]: 107.19 ± 7.45 % of control
Viability [% of control, mean ± SD] 7 days [1]: 107.26 ± 21.82 % of control
Il-1α in culture medium ([1]; medium after first 24 hours): 34.99 ± 1.17 pg/mL
MTT, Keratinocytes (HaCaT) (keratinocytes (HaCaT); 100 μM): 101.35 ± 2.17 % of solvent control
MTT, Keratinocytes (HaCaT) (keratinocytes (HaCaT); 150 μM): 101.40 ± 2.08 % of solvent control
MTT, Keratinocytes (HaCaT) (keratinocytes (HaCaT); 200 μM): 101.51 ± 2.49 % of solvent control
MTT, Keratinocytes (HaCaT) (keratinocytes (HaCaT); 250 μM): 95.53 ± 2.80 % of solvent control
LDH, Fibroblasts (BJ) (fibroblasts (BJ); 100 μM): 5.00 percentage of positive control
LDH, Fibroblasts (BJ) (fibroblasts (BJ); 150 μM): 4.47 percentage of positive control
LDH, Fibroblasts (BJ) (fibroblasts (BJ); 200 μM): 14.72 percentage of positive control
LDH, Fibroblasts (BJ) (fibroblasts (BJ); 250 μM): 28.31 percentage of positive control
MTT, Primary melanocytes (primary melanocytes [2]; 100 μM): 103.69 ± 2.57 % of solvent control
MTT, Primary melanocytes (primary melanocytes [2]; 150 μM): 101.88 ± 2.47 % of solvent control
MTT, Primary melanocytes (primary melanocytes [2]; 200 μM): 97.05 ± 2.96 % of solvent control
MTT, Primary melanocytes (primary melanocytes [2]; 250 μM): 88.88 ± 2.26 % of solvent control
LDH, Primary melanocytes (primary melanocytes [3]; 100 μM): 4.68 percentage of positive control
LDH, Primary melanocytes (primary melanocytes [3]; 150 μM): 7.59 percentage of positive control
LDH, Primary melanocytes (primary melanocytes [3]; 200 μM): 16.71 percentage of positive control
LDH, Primary melanocytes (primary melanocytes [3]; 250 μM): 19.45 percentage of positive control
MTT, Hepatocarcinoma HepG2 (hepatocarcinoma HepG2 [4]; 100 μM): 104.96 ± 7.60 % of solvent control
MTT, Hepatocarcinoma HepG2 (hepatocarcinoma HepG2 [4]; 150 μM): 100.66 ± 7.39 % of solvent control
MTT, Hepatocarcinoma HepG2 (hepatocarcinoma HepG2 [4]; 200 μM): 99.09 ± 1.60 % of solvent control
MTT, Hepatocarcinoma HepG2 (hepatocarcinoma HepG2 [4]; 250 μM): 98.92 ± 2.34 % of solvent control
LDH, Hepatocarcinoma HepG2 (hepatocarcinoma HepG2 [5]; 100 μM): 5.31 percentage of positive control
LDH, Hepatocarcinoma HepG2 (hepatocarcinoma HepG2 [5]; 150 μM): 7.07 percentage of positive control
LDH, Hepatocarcinoma HepG2 (hepatocarcinoma HepG2 [5]; 200 μM): 9.65 percentage of positive control
LDH, Hepatocarcinoma HepG2 (hepatocarcinoma HepG2 [5]; 250 μM): 16.13 percentage of positive control
MTT, Neuroblastoma SH-SY5Y (neuroblastoma SH-SY5Y [6]; 100 μM): 101.50 ± 3.33 % of solvent control
MTT, Neuroblastoma SH-SY5Y (neuroblastoma SH-SY5Y [6]; 150 μM): 100.75 ± 3.01 % of solvent control
MTT, Neuroblastoma SH-SY5Y (neuroblastoma SH-SY5Y [6]; 200 μM): 100.62 ± 5.99 % of solvent control
MTT, Neuroblastoma SH-SY5Y (neuroblastoma SH-SY5Y [6]; 250 μM): 100.41 ± 1.87 % of solvent control
LDH, Neuroblastoma SH-SY5Y (neuroblastoma SH-SY5Y [7]; 100 μM): 5.33 percentage of positive control
LDH, Neuroblastoma SH-SY5Y (neuroblastoma SH-SY5Y [7]; 150 μM): 6.93 percentage of positive control
LDH, Neuroblastoma SH-SY5Y (neuroblastoma SH-SY5Y [7]; 200 μM): 8.49 percentage of positive control
LDH, Neuroblastoma SH-SY5Y (neuroblastoma SH-SY5Y [7]; 250 μM): 13.32 percentage of positive control
Increase in the number of yellow wells compared to the reference level, TA98 (S. typhimurium TA98; 0.5 mM, + S9): 0.50
Increase in the number of yellow wells compared to the reference level, TA98 (S. typhimurium TA98; 0.5 mM, without S9): 0.44
Increase in the number of yellow wells compared to the reference level, TA98 (S. typhimurium TA98; 1.0 mM, + S9): 0.67
Increase in the number of yellow wells compared to the reference level, TA98 (S. typhimurium TA98; 1.0 mM, without S9): 0.33
Increase in the number of yellow wells compared to the reference level, TA98 (S. typhimurium TA98; 2.0 mM, + S9): 1.00
Increase in the number of yellow wells compared to the reference level, TA98 (S. typhimurium TA98; 2.0 mM, without S9): 0.67
Increase in the number of yellow wells compared to the reference level, TA100 (S. typhimurium TA100; 0.5 mM, + S9): 0.83
Increase in the number of yellow wells compared to the reference level, TA100 (S. typhimurium TA100; 0.5 mM, without S9): 0.60
Increase in the number of yellow wells compared to the reference level, TA100 (S. typhimurium TA100; 1.0 mM, + S9): 0.78
Increase in the number of yellow wells compared to the reference level, TA100 (S. typhimurium TA100; 1.0 mM, without S9): 1.03
Increase in the number of yellow wells compared to the reference level, TA100 (S. typhimurium TA100; 2.0 mM, + S9): 0.61
Increase in the number of yellow wells compared to the reference level, TA100 (S. typhimurium TA100; 2.0 mM, without S9): 0.57
Increase in the number of yellow wells compared to the reference level, TA1537 (S. typhimurium TA1537; 0.5 mM, + S9): 0.18
Increase in the number of yellow wells compared to the reference level, TA1537 (S. typhimurium TA1537; 0.5 mM, without S9): 1.07
Increase in the number of yellow wells compared to the reference level, TA1537 (S. typhimurium TA1537; 1.0 mM, + S9): 0.36
Increase in the number of yellow wells compared to the reference level, TA1537 (S. typhimurium TA1537; 1.0 mM, without S9): 0.54
Increase in the number of yellow wells compared to the reference level, TA1537 (S. typhimurium TA1537; 2.0 mM, + S9): 0.27
Increase in the number of yellow wells compared to the reference level, TA1537 (S. typhimurium TA1537; 2.0 mM, without S9): 0.54
Increase in the number of yellow wells compared to the reference level, TA1535 (S. typhimurium TA1535; 0.5 mM, + S9): 0.47
Increase in the number of yellow wells compared to the reference level, TA1535 (S. typhimurium TA1535; 0.5 mM, without S9): 0.92
Increase in the number of yellow wells compared to the reference level, TA1535 (S. typhimurium TA1535; 1.0 mM, + S9): 0.23
Increase in the number of yellow wells compared to the reference level, TA1535 (S. typhimurium TA1535; 1.0 mM, without S9): 0.55
Increase in the number of yellow wells compared to the reference level, TA1535 (S. typhimurium TA1535; 2.0 mM, + S9): 0.35
Increase in the number of yellow wells compared to the reference level, TA1535 (S. typhimurium TA1535; 2.0 mM, without S9): 1.10
Increase in the number of yellow wells compared to the reference level, E. coli WP2 (E. coli WP2; 0.5 mM, + S9): 0.27
Increase in the number of yellow wells compared to the reference level, E. coli WP2 (E. coli WP2; 0.5 mM, without S9): 0.73
Increase in the number of yellow wells compared to the reference level, E. coli WP2 (E. coli WP2; 1.0 mM, + S9): 0.44
Increase in the number of yellow wells compared to the reference level, E. coli WP2 (E. coli WP2; 1.0 mM, without S9): 0.37
Increase in the number of yellow wells compared to the reference level, E. coli WP2 (E. coli WP2; 2.0 mM, + S9): 0.53
Increase in the number of yellow wells compared to the reference level, E. coli WP2 (E. coli WP2; 2.0 mM, without S9): 1.10
